Publication PMC7048932, “Examining sterically demanding lysine analogs for histone lysine methyltransferase catalysis” (Scientific Reports, 2020)

Molecular target: T1, GLP (Homo sapiens, UniProt Q9H9B1)
T1 construct: His6 (N); made in house; host or cells: E. coli BL21 (DE3)pLysS-rosetta
T1 sequence (Q9H9B1 1-1298): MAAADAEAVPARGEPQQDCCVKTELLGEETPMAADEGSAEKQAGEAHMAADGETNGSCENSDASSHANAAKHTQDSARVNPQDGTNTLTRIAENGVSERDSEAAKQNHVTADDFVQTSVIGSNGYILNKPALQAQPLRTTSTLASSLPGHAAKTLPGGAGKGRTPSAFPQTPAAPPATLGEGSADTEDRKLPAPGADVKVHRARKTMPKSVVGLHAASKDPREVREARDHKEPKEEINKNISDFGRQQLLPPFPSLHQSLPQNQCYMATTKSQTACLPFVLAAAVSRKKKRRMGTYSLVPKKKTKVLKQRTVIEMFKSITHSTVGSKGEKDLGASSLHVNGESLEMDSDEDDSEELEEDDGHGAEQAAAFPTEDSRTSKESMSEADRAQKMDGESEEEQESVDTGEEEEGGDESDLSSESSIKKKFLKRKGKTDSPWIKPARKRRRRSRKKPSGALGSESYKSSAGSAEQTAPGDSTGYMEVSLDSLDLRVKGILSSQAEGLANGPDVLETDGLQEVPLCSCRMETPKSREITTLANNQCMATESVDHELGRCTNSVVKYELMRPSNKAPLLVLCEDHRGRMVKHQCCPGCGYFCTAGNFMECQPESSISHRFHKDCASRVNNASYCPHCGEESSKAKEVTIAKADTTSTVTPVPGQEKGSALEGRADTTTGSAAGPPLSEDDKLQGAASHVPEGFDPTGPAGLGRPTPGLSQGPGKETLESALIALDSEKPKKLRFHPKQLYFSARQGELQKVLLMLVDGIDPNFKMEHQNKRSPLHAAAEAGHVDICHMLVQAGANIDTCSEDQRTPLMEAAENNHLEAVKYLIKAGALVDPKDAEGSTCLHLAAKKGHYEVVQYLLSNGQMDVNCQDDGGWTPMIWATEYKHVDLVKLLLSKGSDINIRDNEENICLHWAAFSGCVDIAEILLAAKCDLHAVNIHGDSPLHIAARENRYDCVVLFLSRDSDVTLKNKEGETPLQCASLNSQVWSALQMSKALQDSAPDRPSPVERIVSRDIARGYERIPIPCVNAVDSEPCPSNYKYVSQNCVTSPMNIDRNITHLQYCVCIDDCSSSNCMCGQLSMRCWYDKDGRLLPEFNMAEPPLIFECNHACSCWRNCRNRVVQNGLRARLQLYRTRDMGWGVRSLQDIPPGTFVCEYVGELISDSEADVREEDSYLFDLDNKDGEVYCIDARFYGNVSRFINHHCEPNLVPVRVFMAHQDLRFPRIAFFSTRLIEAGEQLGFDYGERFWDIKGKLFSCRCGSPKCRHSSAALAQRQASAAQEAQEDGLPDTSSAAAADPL
Assay: MALDI-TOF MS methylation assay of H3K9 peptides with GLP
Type: biochemical
Conditions: peptide 100 µM, 37 °C
Procedure: MALDI-MS methyltransferases activity experiments were performed using a Bruker instrument in the reflectron positive mode. For regular methyltransferase standard conditions experiment which carried out in 30 µL total volume, the mixture contains peptide (100 µM), SAM (200 µM), SETD8 or SETD7 (2 µM), in assay buffer 50 mM Tris at optimal pH 8.0. In case of G9a and GLP, similar conditions were used, except (500 µM) of SAM was added to the reaction mixture. […] A 5 µL aliquot of the solution was mixed with 5 µL of MeOH, after which 5 µL of this mixture was mixed with 5 µL of α-cyano-4-hydroxycinamic acid matrix (CHCA, 5 mg/mL in 125:125 µL acetonitrile/water). The spots were placed on a stainless steel MALDI plate (MS 96 target ground steel BC of Bruker, Germany). The mass corresponding to one monomethylation observed as +14 Da, dimethylation observed as +28 Da and trimethylation observed as +42 Da. The enzymatic activity was determined by taking the peak areas of each methylation state, including all isotopes and adducts, and was annotated using FlexAnalysis software (Bruker Daltonics, Germany). […] Methylated peptide substrates were repeated five times and the unmethylated substrates were triplicated. Sequences of the examined peptides are given in (Supplementary Table 1).

[1] = GLP 10 µM, SAM 1 mM, 5 h, MALDI-MS

GLP-catalyzed methylation, result in words (GLP 2 µM, SAM 500 µM, 1 h, MALDI-TOF MS): traces detected
GLP-catalyzed methylation, result in words, increased GLP/SAM [1]: monomethylation
GLP-catalyzed monomethylation, increased GLP/SAM [1]: 55%
Substance: ARTKQTAR(Kba9)STGGKA [H3Kba9]
